The source of these data is patent US8119624B2, “Fused phenyl amido heterocyclic compounds” (Pfizer Inc., priority 2006, dated 2012).

Usually EC50 stands for the concentration needed to bring the measured effect to its halfway point.

This assay concerns the target T1, Full-length glucokinase (beta cell isoform) (Homo sapiens, UniProt P35557).
T1 construct: Full-length glucokinase (beta cell isoform) was His-tagged at N-terminus; His tag (N); made in house
T1 sequence (P35557 1-465): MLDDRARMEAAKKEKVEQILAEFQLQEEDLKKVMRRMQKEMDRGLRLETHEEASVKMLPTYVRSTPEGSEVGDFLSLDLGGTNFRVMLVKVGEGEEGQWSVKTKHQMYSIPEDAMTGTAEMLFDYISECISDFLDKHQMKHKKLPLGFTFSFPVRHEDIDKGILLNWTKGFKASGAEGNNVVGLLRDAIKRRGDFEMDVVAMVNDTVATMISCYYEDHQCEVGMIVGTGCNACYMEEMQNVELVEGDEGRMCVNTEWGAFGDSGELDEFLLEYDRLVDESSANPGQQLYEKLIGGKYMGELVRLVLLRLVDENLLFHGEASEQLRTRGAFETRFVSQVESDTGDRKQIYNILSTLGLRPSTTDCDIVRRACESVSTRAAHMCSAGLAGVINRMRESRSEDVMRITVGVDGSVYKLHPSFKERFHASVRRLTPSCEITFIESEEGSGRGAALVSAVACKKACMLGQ
The assay is described as follows: Glucokinase biochemical assay (PK/LDH-coupled, NADH depletion at 340 nm): % activation, EC50, % max activation. As to conditions: 5 mM glucose; for activation at 10 µM: read-out: % Activation at 10 uM; for EC50: read-out: EC50; for Emax / % Max Activation: fitted maximum activation; for Emax: read-out: % Max Activation. In a few lines: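 Activation expressed as (Va/Vo−1)×100, where initial rates with and without compound come from NADH depletion at 340 nm over 200–900 s. Enzyme is His-tagged human beta-cell GK, full length, run at room temperature in HEPES buffer with 1 mM ATP and 5 mM glucose. DMSO 1%.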

Where [1] appears, read: 10 uM compound, % Activation=(Va/Vo−1)×100.

Structures are written as SMILES. Read-outs that look alike come from different tables or passages of the source.

`CCS(=O)(=O)c1ccc(Oc2cc(C(=O)Nc3ccn(C)n3)cc3c2CC(C)(C)O3)cc1F` [Example 136, 4-(4-Ethanesulfonyl-3-fluoro-phenoxy)-2,2-dimethyl-2,3-dihydro-benzofuran-6-carboxylic acid (1-methyl-1H-pyrazol-3-yl)-amide]: the Emax is 236%. For the same molecule, the activation at 10 µM under setting [1] was found to be 237%. The EC50 (GK activation) amounted to 0.12 µM.
Turning to `Cc1cc(NC(=O)c2cc(Oc3ccc(C(=O)N(C)C)cc3)c3c(c2)OC(C)(C)C3)no1` [Example 154, 4-(4-Dimethylcarbamoyl-phenoxy)-2,2-dimethyl-2,3-dihydro-benzofuran-6-carboxylic acid (5-methyl-isoxazol-3-yl)-amide], the Emax was found to be 54%. Also, under setting [1], the activation at 10 µM came out at 36.3%. Besides, the EC50 (GK activation) was found to be 4 µM.
`CC(C)Oc1cc(C(=O)Nc2ccn(C)n2)cc2c1CC(CO)O2` (stereo not shown) [Example 215, 2-Hydroxymethyl-4-isopropoxy-2,3-dihydro-benzofuran-6-carboxylic acid (1-methyl-1H-pyrazol-3-yl)-amide]: the activation at 10 µM under setting [1] was determined as 16.7%.
As for `Cc1csc2cc(C(=O)Nc3ccn(C)n3)cc(Oc3ccc(C(=O)N(C)C)cc3)c12` [Example 352, 4-{4-[(Dimethylamino)carbonyl]phenoxy}-3-methyl-N-(1-methyl-1H-pyrazol-3-yl)-1-benzothiophene-6-carboxamide], the activation at 10 µM under setting [1] was determined as 12.3%.
As to `CCNC(=O)c1ccc(Oc2cc(C(=O)Nc3cnn(C)n3)cc3c2CC(C)(C)O3)cn1` [Example 174, 5-[2,2-Dimethyl-6-(2-methyl-2H-[1,2,3]triazol-4-ylcarbamoyl)-2,3-dihydro-benzofuran-4-yloxy]-pyridine-2-carboxylic acid ethylamide], the Emax amounted to 258%. In addition, the activation at 10 µM under setting [1] is 238%. For the same molecule, the EC50 (GK activation) is 0.84 µM.
Regarding `Cn1ccc(NC(=O)c2cc(Oc3ccc(C(=O)N4CCC4)nc3)c3c(c2)OC(C)(C)C3)n1` [Example 167, 4-[6-(Azetidine-1-carbonyl)-pyridin-3-yloxy]-2,2-dimethyl-2,3-dihydro-benzofuran-6-carboxylic acid (1-methyl-1H-pyrazol-3-yl)-amide], the Emax is 146%. In addition, the activation at 10 µM under setting [1] came to 148%. Also, the EC50 (GK activation) was 0.0553 µM.
For the molecule `CN(C)C(=O)c1ccc(Oc2cc(C(=O)Nc3ccn(C)n3)cc3sccc23)cc1F` [Example 357, 4-(4-(Dimethylcarbamoyl)-3-fluorophenoxy)-N-(1-methyl-1H-pyrazol-3-yl)benzo[b]thiophene-6-carboxamide], the activation at 10 µM under setting [1] came out at 32.7%.
As to `Cn1ccc(NC(=O)c2cc(Oc3ccc(S(C)(=O)=O)c(F)c3)c3c(c2)OC(C)(CO)C3)n1` (stereo not shown) [Example 232, 4-(3-Fluoro-4-methanesulfonyl-phenoxy)-2-hydroxymethyl-2-methyl-2,3-dihydro-benzofuran-6-carboxylic acid (1-methyl-1H-pyrazol-3-yl)-amide], the Emax amounted to 184%. In addition, the activation at 10 µM under setting [1] worked out at 188%. The EC50 (GK activation) worked out at 0.39 µM.
The like results for `COCC1(C)Cc2c(Oc3ccc(S(C)(=O)=O)cc3)cc(C(=O)Nc3ccn(C)n3)cc2O1` (stereo not shown) [Example 228, 4-(4-Methanesulfonyl-phenoxy)-2-methoxymethyl-2-methyl-2,3-dihydro-benzofuran-6-carboxylic acid (1-methyl-1H-pyrazol-3-yl)-amide] were, in that order, 156%, 151% and 0.5 µM.
Regarding `COCC1Cc2c(Oc3ccc(C(=O)N4CCC4)cc3)cc(C(=O)Nc3ccn(C)n3)cc2O1` (single isomer, unassigned; (+)) [Example 210, (+)-4-[4-(Azetidine-1-carbonyl)-phenoxy]-2-methoxymethyl-2,3-dihydro-benzofuran-6-carboxylic acid (1-methyl-1H-pyrazol-3-yl)-amide], the “% Max Activation” value was determined as 143%. In addition, under setting [1], the “% Activation at 10 uM” value is listed as 130%. Further, the EC50 (GK activation) stood at 0.85 µM.
For `Cc1ccc(NC(=O)c2cc(Oc3ccc(S(=O)(=O)N4CCC4)cc3)c3c(c2)OC(C)(C)C3)nc1` [Example 124, 4-[4-(Azetidine-1-sulfonyl)-phenoxy]-2,2-dimethyl-2,3-dihydro-benzofuran-6-carboxylic acid (5-methyl-pyridin-2-yl)-amide], the Emax worked out at 113%. The activation at 10 µM under setting [1] was 156%. The half-maximal effective concentration (EC50) (GK activation) was determined as 0.038 µM.
Turning to `Cc1ccc(NC(=O)c2cc(Oc3ccc(C(=O)N(C)C)c(F)c3)c3ccsc3c2)nc1` [Example 358, 4-(4-(Dimethylcarbamoyl)-3-fluorophenoxy)-N-(5-methylpyridin-2-yl)benzo[b]thiophene-6-carboxamide], the Emax turned out to be 56%. For the same molecule, the activation at 10 µM under setting [1] stood at 50.4%. Also, the EC50 (GK activation) worked out at 0.33 µM.
For `COCC1Cc2c(Oc3ccc(C(=O)N4CCC4)cc3)cc(C(=O)Nc3ccn(C)n3)cc2O1` (single isomer, unassigned; (-)) [Example 209, (−)-4-[4-(Azetidine-1-carbonyl)-phenoxy]-2-methoxymethyl-2,3-dihydro-benzofuran-6-carboxylic acid (1-methyl-1H-pyrazol-3-yl)-amide], the “% Max Activation” value was 96%. For the same molecule, under setting [1], the “% Activation at 10 uM” value is reported as 87%. The EC50 (GK activation) is 0.38 µM.
For the molecule `COc1ccc(CC(C)Oc2cc(C(=O)Nc3ccn(C)n3)cc3c2CC(C)(C)O3)cc1` (stereo not shown) [Example 79, 4-[2-(4-Methoxy-phenyl)-1-methyl-ethoxy]-2,2-dimethyl-2,3-dihydro-benzofuran-6-carboxylic acid (1-methyl-1H-pyrazol-3-yl)-amide], the Emax stood at 171%. For the same molecule, the activation at 10 µM under setting [1] was determined as 148%. Also, the EC50 (GK activation) was 2.1 µM.
Regarding `Cn1ccc(NC(=O)c2cc(Oc3ccc(-c4ncon4)c(F)c3)c3c(c2)OC(C)(C)C3)n1` [Example 185, 4-(3-Fluoro-4-[1,2,4]oxadiazol-3-yl-phenoxy)-2,2-dimethyl-2,3-dihydro-benzofuran-6-carboxylic acid (1-methyl-1H-pyrazol-3-yl)-amide], the Emax turned out to be 227%. Further, the activation at 10 µM under setting [1] was 248%. Also, the EC50 (GK activation) amounted to 0.104 µM.
As for `CC(C)CN1Cc2c(Oc3ccc(S(C)(=O)=O)cc3)cc(C(=O)Nc3ccn(C)n3)cc2C1=O` [Example 382, 2-Isobutyl-N-(1-methyl-1H-pyrazol-3-yl)-7-(4-(methylsulfonyl)-phenoxy)-3-oxoisoindoline-5-carboxamide], the EC50 (1 mM ATP, room temperature) is 9.3 µM. For the same molecule, the activation at 10 µM (compound at 10 uM, 1 mM ATP, room temperature) is 82%. For the same molecule, the Emax (1 mM ATP) was determined as 156%.
`Cc1cc2c(Oc3ccc(S(C)(=O)=O)cc3)cc(C(=O)Nc3ccc4c(n3)CCC4)cc2o1` [Example 254, N-(6,7-Dihydro-5H-cyclopenta[b]pyridin-2-yl)-2-methyl-4-(4-(methylsulfonyl)-phenoxy)benzofuran-6-carboxamide]: the Emax turned out to be 71%. In addition, the activation at 10 µM under setting [1] is 53.3%. Further, the EC50 (GK activation) turned out to be 3.4 µM.
Turning to `COCC1Cc2c(Oc3ccc(C(=O)N(C)C)cc3)cc(C(=O)Nc3ccn(C)n3)cc2O1` (single isomer, unassigned; (-)) [Example 213, (−)-4-(4-Dimethylcarbamoyl-phenoxy)-2-methoxymethyl-2,3-dihydro-benzofuran-6-carboxylic acid (1-methyl-1H-pyrazol-3-yl)-amide], the “% Max Activation” value came to 113%. In addition, the “% Activation at 10 uM” value under setting [1] stood at 83.1%. The EC50 (GK activation) is 0.89 µM.
Regarding `Cc1cc2c(Oc3ccc(S(=O)(=O)N4CCC4)cc3)cc(C(=O)Nc3ccn(C)n3)cc2o1` [Example 294, 4-(4-(Azetidin-1-ylsulfonyl)phenoxy)-2-methyl-N-(1-methyl-1H-pyrazol-3-yl)benzofuran-6-carboxamide], the Emax was found to be 132%. The activation at 10 µM under setting [1] worked out at 122%. The EC50 (GK activation) was 0.2 µM.
On to `Cn1ccc(NC(=O)c2cc(OCc3cc(O)nc(-c4cnccn4)n3)c3c(c2)OC(C)(C)C3)n1` [Example 88, 4-(6-Hydroxy-2-pyrazin-2-yl-pyrimidin-4-ylmethoxy)-2,2-dimethyl-2,3-dihydro-benzofuran-6-carboxylic acid (1-methyl-1H-pyrazol-3-yl)-amide], for which the activation at 10 µM under setting [1] is 38.2%.
On to `COCc1cc2c(Oc3ccc(S(C)(=O)=O)cc3)cc(C(=O)Nc3ccn(C)n3)cc2o1` [Example 310, 2-(Methoxymethyl)-N-(1-methyl-1H-pyrazol-3-yl)-4-[4-(methylsulfonyl)-phenoxy]-1-benzofuran-6-carboxamide], for which the Emax was determined as 137%. Also, under setting [1], the activation at 10 µM is 118%. For the same molecule, under “GK activation”, the EC50 was 0.73 µM.
`Cc1ccc(NC(=O)c2cc(Oc3ccc(S(C)(=O)=O)cc3)c3c(c2)OC(C)(C)C3)nn1` [Example 21, 4-(4-Methanesulfonyl-phenoxy)-2,2-dimethyl-2,3-dihydro-benzofuran-6-carboxylic acid (6-methyl-pyridazin-3-yl)-amide]: the Emax stood at 127%. Moreover, the activation at 10 µM under setting [1] worked out at 97.9%. In addition, under “GK activation”, the EC50 stood at 3.9 µM.
